Reference: US20230192712A1, “MODULATORS OF THE INTEGRATED STRESS PATHWAY” (Calico Life Sciences LLC, priority 2017, published 2023)

Tested on: HEK293T cells carrying the ATF4 luciferase reporter
Assay: ATF4-Luc assay (in vitro model of VWMD)
Assay type: cell-based
Settings: Homo sapiens, HEK-293T; HEK293T ATF4 5'-UTR firefly luciferase reporter cells, 1 μg/mL tunicamycin, 7 hours, One Glo luminescence
Procedure: In order to test exemplary compounds of the invention in a cellular context, a stable VWMD cell line was first constructed. The ATF4 reporter was prepared by fusing the human full-length ATF4 5′-UTR (NCBI Accession No. BC022088.2) in front of the firefly luciferase (FLuc) coding sequence lacking the initiator methionine as described in Sidrauski et al (eLife 2013). The construct was used to produce recombinant retroviruses using standard methods and the resulting viral supernatant was used to transduce HEK293T cells, which were then subsequently selected with puromycin to generate a stable cell line.
HEK293T cells carrying the ATF4 luciferase reporter were plated on polylysine coated 384-well plates (Greiner Bio-one) at 30,000 cells per well. Cells were treated the next day with 1 μg/mL tunicamycin and 200 nM of a compound of Formula (I) or Formula (II) for 7 hours. Luminescence was measured using One Glo (Promega) as specified by the manufacturer. Cells were maintained in DMEM with L-glutamine supplemented with 10% heat-inactivated FBS (Gibco) and Antibiotic-Antimycotic solution (Gibco).
Table 2 below summarizes the EC50 data obtained using the ATF4-Luc assay for exemplary compounds of the invention.

| Structure (SMILES) | EC50 [nM] |
| --- | --- |
| O=C(COc1ccc(Cl)c(F)c1)NC12CC(C(=O)N3CC4(C3)CN(c3ccc(Cl)c(F)c3)C4)(C1)C2 [Compound 100, 2-(4-chloro-3-fluorophenoxy)-N-{3-[6-(4-chloro-3-fluorophenyl)-2,6-diazaspiro[3.3]heptane-2-carbonyl]bicyclo[1.1.1]pentan-1-yl}acetamide] | > 2000 |
| O=C(COc1ccc(Cl)c(F)c1)NC12CC(C(=O)N3CCC(c4ccc(Cl)cc4)CC3)(C1)C2 [Compound 101, 2-(4-chloro-3-fluorophenoxy)-N-{3-[4-(4-chlorophenyl)piperidine-1-carbonyl]bicyclo[1.1.1]pentan-1-yl}acetamide] | 50 to 250 |
| O=C(COc1ccc(Cl)c(F)c1)NC12CCC(C(=O)N3CCC(c4ccc(Cl)cc4)CC3)(CC1)CC2 [Compound 102, 2-(4-chloro-3-fluorophenoxy)-N-{4-[4-(4-chlorophenyl)piperidine-1-carbonyl]bicyclo[2.2.2]octan-1-yl}acetamide] | 50 to 250 |
| O=C(COc1ccc(Cl)c(F)c1)NC12CC(C(=O)N3CCC(c4ccc(Cl)cc4)C3)(C1)C2 (stereo not shown) [Compound 103, 2-(4-chloro-3-fluorophenoxy)-N-{3-[3-(4-chlorophenyl)pyrrolidine-1-carbonyl]bicyclo[1.1.1]pentan-1-yl}acetamide] | > 2000 |
| O=C(COc1ccc(Cl)c(F)c1)NC12CCC(C(=O)N3CCC(c4ccc(Cl)cc4)C3)(CC1)CC2 (stereo not shown) [Compound 104, 2-(4-chloro-3-fluorophenoxy)-N-{4-[3-(4-chlorophenyl)pyrrolidine-1-carbonyl]bicyclo[2.2.2]octan-1-yl}acetamide] | > 2000 |
| O=C(COc1ccc(Cl)c(F)c1)NC12CCC(C(=O)N3CC(c4ccc(Cl)cc4)C3)(CC1)CC2 [Compound 105, 2-(4-chloro-3-fluorophenoxy)-N-{4-[3-(4-chlorophenyl)azetidine-1-carbonyl]bicyclo[2.2.2]octan-1-yl}acetamide] | < 50 |
| O=C(COc1ccc(Cl)c(F)c1)NC12CC(C(=O)N3CC(c4ccc(Cl)cc4)C3)(C1)C2 [Compound 106, 2-(4-chloro-3-fluorophenoxy)-N-{3-[3-(4-chlorophenyl)azetidine-1-carbonyl]bicyclo[1.1.1]pentan-1-yl}acetamide] | < 50 |
| O=C(COc1ccc(Cl)c(F)c1)NC12CCC(C(=O)N3CCN(c4ccc(Cl)cc4)CC3)(CC1)CC2 [Compound 107, 2-(4-chloro-3-fluorophenoxy)-N-{4-[4-(4-chlorophenyl)piperazine-1-carbonyl]bicyclo[2.2.2]octan-1-yl}acetamide] | 50 to 250 |
| O=C(COc1ccc(Cl)c(F)c1)NC12CCC(C(=O)N3CC(O)(c4ccc(Cl)cc4)C3)(CC1)[C@@H](O)C2 [Compound 108, 2-(4-chloro-3-fluorophenoxy)-N-{(3S)-4-[3-(4-chlorophenyl)-3-hydroxyazetidine-1-carbonyl]-3-hydroxybicyclo[2.2.2]octan-1-yl}acetamide] | 250 to 1000 |
| O=C(COc1ccc(Cl)c(F)c1)NC12CCC(C(=O)N3CC(O)(c4ccc(Cl)cc4)C3)(CC1)[C@H](O)C2 [Compound 109, 2-(4-chloro-3-fluorophenoxy)-N-{(3R)-4-[3-(4-chlorophenyl)-3-hydroxyazetidine-1-carbonyl]-3-hydroxybicyclo[2.2.2]octan-1-yl}acetamide] | 50 to 250 |
| O=C(COc1ccc(Cl)c(F)c1)NC12CC(C(=O)N3CC(O)(c4ccc(Cl)cc4)C3)(C1)C2 [Compound 110, 2-(4-chloro-3-fluorophenoxy)-N-{3-[3-(4-chlorophenyl)-3-hydroxyazetidine-1-carbonyl]bicyclo[1.1.1]pentan-1-yl}acetamide] | > 2000 |
| O=C(COc1ccc(Cl)c(F)c1)NC12CC(C(=O)N3Cc4ccc(Cl)cc4C3)(C1)C2 [Compound 111, N-[3-(5-chloro-1,3-dihydro-2H-isoindole-2-carbonyl)bicyclo[1.1.1]pentan-1-yl]-2-(4-chloro-3-fluorophenoxy)acetamide] | 250 to 1000 |
| O=C(COc1ccc(Cl)c(F)c1)NC12CCC(C(=O)N3Cc4ccc(Cl)cc4C3)(CC1)CC2 [Compound 112, N-[4-(5-chloro-1,3-dihydro-2H-isoindole-2-carbonyl)bicyclo[2.2.2]octan-1-yl]-2-(4-chloro-3-fluorophenoxy)acetamide] | > 2000 |
| O=C(COc1ccc(Cl)c(F)c1)NC12CCC(C(=O)N3CC(c4ccccc4)C3)(CC1)CC2O (stereo not shown) [Compound 113, 2-(4-chloro-3-fluorophenoxy)-N-[2-hydroxy-4-(3-phenylazetidine-1-carbonyl)bicyclo[2.2.2]octan-1-yl]acetamide] | 250 to 1000 |
| O=C(COc1ccc(Cl)c(F)c1)NC12CCC(C(=O)N3CCC(c4ccc(Cl)cc4)C3)(CC1)CC2O (stereo not shown) [Compound 114, 2-(4-chloro-3-fluorophenoxy)-N-{4-[3-(4-chlorophenyl)pyrrolidine-1-carbonyl]-2-hydroxybicyclo[2.2.2]octan-1-yl}acetamide] | > 2000 |
| O=C(COc1ccc(Cl)c(F)c1)NC12CCC(C(=O)N3CC(c4ccc(Cl)cc4)C3)(CC1)CC2O (stereo not shown) [Compound 115, 2-(4-chloro-3-fluorophenoxy)-N-{4-[3-(4-chlorophenyl)azetidine-1-carbonyl]-2-hydroxybicyclo[2.2.2]octan-1-yl}acetamide] | < 50 |
